Measurements taken from US20230085307A1, “PYRIDAZINONE COMPOUND AND HERBICIDE” (NISSAN CHEMICAL CORPORATION, priority 2019, published 2023).

Columns and labels:
Italian ryegrass [1] = experiment: Test Example 5: herbicidal effect by foliage application, plastic box (Table 20, symbol K); type: in vivo, Italian ryegrass (Lolium multiflorum); settings: foliage application, 320 g/ha, three weeks after application
Method in brief: (§1)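 Sow seeds spot-wise in sterilized diluvial soil; cover with ~1.5 cm soil. Grow 14 days in greenhouse, 25° C. to 30° C. Spray foliage with emulsion diluted to predetermined amount. Rate effect after 3 weeks.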

barnyard grass [2] = experiment: Test Example 5: herbicidal effect by foliage application, plastic box (Table 20, symbol H); type: in vivo, barnyard grass (Echinochloa crus-galli); settings: foliage application, 320 g/ha, three weeks after application
Method in brief: as §1

windgrass [3] = experiment: Test Example 4: herbicidal effect by soil treatment (Table 19, symbol L); type: in vivo, windgrass (Apera spica-venti); settings: amount of applied herbicide 320 g/ha
Method in brief: (§2)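 Applied as a water-diluted emulsion, the compound was sprayed onto soil covering newly sown seeds. Evaluation came three weeks after application, in a greenhouse held at 25° C. to 30° C.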

southern crabgrass [4] = experiment: Test Example 4: herbicidal effect by soil treatment (Table 19, symbol F); type: in vivo, southern crabgrass (Digitaria ciliaris); settings: amount of applied herbicide 320 g/ha
Method in brief: as §2

wild oat [5] = experiment: Test Example 4: herbicidal effect by soil treatment (Table 19, symbol I); type: in vivo, wild oat (Avena fatua); settings: amount of applied herbicide 320 g/ha
Method in brief: as §2

redroot pigweed [6] = experiment: Test Example 4: herbicidal effect by soil treatment (Table 19, symbol N); type: in vivo, redroot pigweed (Amaranthus retroflexus); settings: amount of applied herbicide 320 g/ha
Method in brief: as §2

wild oat [7] = experiment: Test Example 5: herbicidal effect by foliage application, plastic box (Table 20, symbol I); type: in vivo, wild oat (Avena fatua); settings: foliage application, 320 g/ha, three weeks after application
Method in brief: as §1

velvetleaf [8] = experiment: Test Example 5: herbicidal effect by foliage application, plastic box (Table 20, symbol M); type: in vivo, velvetleaf (Abutilon theophrasti); settings: foliage application, 320 g/ha, three weeks after application
Method in brief: as §1

lambsquarters [9] = experiment: Test Example 5: herbicidal effect by foliage application, plastic box (Table 20, symbol O); type: in vivo, lambsquarters (Chenopodium album); settings: foliage application, 320 g/ha, three weeks after application
Method in brief: as §1

persian speedwell [10] = experiment: Test Example 4: herbicidal effect by soil treatment (Table 19, symbol R); type: in vivo, Persian speedwell (Veronica persica); settings: amount of applied herbicide 320 g/ha
Method in brief: as §2

Chinese sprangletop = experiment: Test Example 3: herbicidal effect by foliage application, Wagner pot (Table 18, symbol D); type: in vivo, chinese sprangletop (Leptochloa chinensis); settings: 320 g/ha
Method in brief: (§3)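 Plants were sown in alluvial soil held under 0.1–0.5 cm standing water and grown 14 days in a greenhouse at 25–30 °C. An emulsifiable formulation, water-diluted to the set dose, was then sprayed onto the foliage, and effects were scored three weeks later using previously defined criteria.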

chickweed [11] = experiment: Test Example 5: herbicidal effect by foliage application, plastic box (Table 20, symbol P); type: in vivo, common chickweed (Stellaria media); settings: foliage application, 320 g/ha, three weeks after application
Method in brief: as §1

southern crabgrass [12] = experiment: Test Example 5: herbicidal effect by foliage application, plastic box (Table 20, symbol F); type: in vivo, southern crabgrass (Digitaria ciliaris); settings: foliage application, 320 g/ha, three weeks after application
Method in brief: as §1

rice flat sedge = experiment: Test Example 3: herbicidal effect by foliage application, Wagner pot (Table 18, symbol E); type: in vivo, rice flat sedge (Cyperus iria); settings: 320 g/ha
Method in brief: as §3

chickweed [13] = experiment: Test Example 4: herbicidal effect by soil treatment (Table 19, symbol P); type: in vivo, common chickweed (Stellaria media); settings: amount of applied herbicide 320 g/ha
Method in brief: as §2

barnyard grass [14] = experiment: Test Example 4: herbicidal effect by soil treatment (Table 19, symbol H); type: in vivo, barnyard grass (Echinochloa crus-galli); settings: amount of applied herbicide 320 g/ha
Method in brief: as §2

persian speedwell [15] = experiment: Test Example 5: herbicidal effect by foliage application, plastic box (Table 20, symbol R); type: in vivo, Persian speedwell (Veronica persica); settings: foliage application, 320 g/ha, three weeks after application
Method in brief: as §1

barnyard grass [16] = experiment: Test Example 3: herbicidal effect by foliage application, Wagner pot (Table 18, symbol H); type: in vivo, barnyard grass (Echinochloa crus-galli); settings: 320 g/ha
Method in brief: as §3

blackgrass [17] = experiment: Test Example 5: herbicidal effect by foliage application, plastic box (Table 20, symbol J); type: in vivo, blackgrass (Alopecurus myosuroides); settings: foliage application, 320 g/ha, three weeks after application
Method in brief: as §1

redroot pigweed [18] = experiment: Test Example 5: herbicidal effect by foliage application, plastic box (Table 20, symbol N); type: in vivo, redroot pigweed (Amaranthus retroflexus); settings: foliage application, 320 g/ha, three weeks after application
Method in brief: as §1

green foxtail [19] = experiment: Test Example 5: herbicidal effect by foliage application, plastic box (Table 20, symbol G); type: in vivo, green foxtail (Setaria viridis); settings: foliage application, 320 g/ha, three weeks after application
Method in brief: as §1

windgrass [20] = experiment: Test Example 5: herbicidal effect by foliage application, plastic box (Table 20, symbol L); type: in vivo, windgrass (Apera spica-venti); settings: foliage application, 320 g/ha, three weeks after application
Method in brief: as §1

green foxtail [21] = experiment: Test Example 4: herbicidal effect by soil treatment (Table 19, symbol G); type: in vivo, green foxtail (Setaria viridis); settings: amount of applied herbicide 320 g/ha
Method in brief: as §2

lambsquarters [22] = experiment: Test Example 4: herbicidal effect by soil treatment (Table 19, symbol O); type: in vivo, lambsquarters (Chenopodium album); settings: amount of applied herbicide 320 g/ha
Method in brief: as §2

blackgrass [23] = experiment: Test Example 4: herbicidal effect by soil treatment (Table 19, symbol J); type: in vivo, blackgrass (Alopecurus myosuroides); settings: amount of applied herbicide 320 g/ha
Method in brief: as §2

Italian ryegrass [24] = experiment: Test Example 4: herbicidal effect by soil treatment (Table 19, symbol K); type: in vivo, Italian ryegrass (Lolium multiflorum); settings: amount of applied herbicide 320 g/ha
Method in brief: as §2

velvetleaf [25] = experiment: Test Example 4: herbicidal effect by soil treatment (Table 19, symbol M); type: in vivo, velvetleaf (Abutilon theophrasti); settings: amount of applied herbicide 320 g/ha
Method in brief: as §2

Question: How did the “herbicidal effect grade, K: Italian ryegrass” value (Italian ryegrass [1]) turn out when CCCC(=O)Oc1c(C)nn(C)c(=O)c1-c1c(-c2ccc(F)cc2OC)sc2ccccc12 [1-056] was run?
Answer: 1 (Herbicidal rate of 5% or more and less than 20%)

Question: What about the “herbicidal effect grade, H: barnyard grass” value (barnyard grass [2]) of the same molecule?
Answer: 4 (Herbicidal rate of 70% or more and less than 90%)

Question: And the “herbicidal effect rating, L: windgrass” value (windgrass [3])?
Answer: 5 (Herbicidal rate of 90% or more (almost completely withered))

Question: What about the “herbicidal effect rating, F: southern crabgrass” value (southern crabgrass [4]) of the same molecule?
Answer: 3 (Herbicidal rate of 40% or more and less than 70%)

Question: And the “herbicidal effect rating, I: wild oat” value (wild oat [5])?
Answer: 3 (Herbicidal rate of 40% or more and less than 70%)

Question: What about the “herbicidal effect rating, N: redroot pigweed” value (redroot pigweed [6]) of the same molecule?
Answer: 5 (Herbicidal rate of 90% or more (almost completely withered))

Question: What about the “herbicidal effect grade, I: wild oat” value (wild oat [7]) of the same molecule?
Answer: 4 (Herbicidal rate of 70% or more and less than 90%)

Question: What about the “herbicidal effect grade, M: velvetleaf” value (velvetleaf [8]) of the same molecule?
Answer: 4 (Herbicidal rate of 70% or more and less than 90%)

Question: What about the “herbicidal effect grade, O: lambsquarters” value (lambsquarters [9]) of the same molecule?
Answer: 2 (Herbicidal rate of 20% or more and less than 40%)

Question: And the “herbicidal effect rating, R: persian speedwell” value (persian speedwell [10])?
Answer: 4 (Herbicidal rate of 70% or more and less than 90%)

Question: What about the “herbicidal effect on D (Chinese sprangletop), rating 0-5” value (Chinese sprangletop) of the same molecule?
Answer: 2 (Herbicidal rate of 20% or more and less than 40%)

Question: And the “herbicidal effect grade, P: chickweed” value (chickweed [11])?
Answer: 5 (Herbicidal rate of 90% or more (almost completely withered))

Question: What about the “herbicidal effect grade, F: southern crabgrass” value (southern crabgrass [12]) of the same molecule?
Answer: 5 (Herbicidal rate of 90% or more (almost completely withered))

Question: And the “herbicidal effect on E (rice flat sedge), rating 0-5” value (rice flat sedge)?
Answer: 5 (Herbicidal rate of 90% or more (almost completely withered))

Question: And the “herbicidal effect rating, P: chickweed” value (chickweed [13])?
Answer: 3 (Herbicidal rate of 40% or more and less than 70%)

Question: And the “herbicidal effect rating, H: barnyard grass” value (barnyard grass [14])?
Answer: 3 (Herbicidal rate of 40% or more and less than 70%)

Question: What about the “herbicidal effect grade, R: persian speedwell” value (persian speedwell [15]) of the same molecule?
Answer: 3 (Herbicidal rate of 40% or more and less than 70%)

Question: What about the “herbicidal effect on H (barnyard grass), rating 0-5” value (barnyard grass [16]) of the same molecule?
Answer: 4 (Herbicidal rate of 70% or more and less than 90%)

Question: And the “herbicidal effect grade, J: blackgrass” value (blackgrass [17])?
Answer: 4 (Herbicidal rate of 70% or more and less than 90%)

Question: And the “herbicidal effect grade, N: redroot pigweed” value (redroot pigweed [18])?
Answer: 3 (Herbicidal rate of 40% or more and less than 70%)

Question: And the “herbicidal effect grade, G: green foxtail” value (green foxtail [19])?
Answer: 5 (Herbicidal rate of 90% or more (almost completely withered))

Question: And the “herbicidal effect grade, L: windgrass” value (windgrass [20])?
Answer: 5 (Herbicidal rate of 90% or more (almost completely withered))

Question: And the “herbicidal effect rating, G: green foxtail” value (green foxtail [21])?
Answer: 5 (Herbicidal rate of 90% or more (almost completely withered))

Question: What about the “herbicidal effect rating, O: lambsquarters” value (lambsquarters [22]) of the same molecule?
Answer: 3 (Herbicidal rate of 40% or more and less than 70%)

Question: And the “herbicidal effect rating, J: blackgrass” value (blackgrass [23])?
Answer: 1 (Herbicidal rate of 5% or more and less than 20%)

Question: What about the “herbicidal effect rating, K: Italian ryegrass” value (Italian ryegrass [24]) of the same molecule?
Answer: 0 (Herbicidal rate of 5% or less (almost no effect))

Question: And the “herbicidal effect rating, M: velvetleaf” value (velvetleaf [25])?
Answer: 0 (Herbicidal rate of 5% or less (almost no effect))
